Data on 2 compounds can be found in patent US20180296537A1, “METHODS AND COMPOSITIONS FOR DIAGNOSING, TREATING, AND MONITORING TREATMENT OF SHANK3 DEFICIENCY ASSOCIATED DISORDERS” (Novartis AG, priority 2015, published 2018).

The test system of the test is CA1 pyramidal neurons. Description: Dendritic spine density in hippocampal organotypic slice cultures. Format: cell-based, mouse. The method, then:
Wilde type (C57B1/6) mice were housed in a temperature-controlled room and maintained on a 12 hr light/dark cycle. Food and water were available ad libitum and experiments were carried out in accordance with the local authorization guidelines for the care and use of laboratory animals. Slice cultures were established according to the procedure described by Stoppini and colleagues (Galimberti et al., 2006; Stoppini et al., 1991). […] For organotypic slice cultures, brains of P6-P9 transgenic mice were dissected in cold MEM (GIBCO) medium, and hippocampal coronal sections of 400 μm were obtained with a tissue chopper (McIlwain). Slices were selected, placed on Millicell (Millipore, PICM03050) and cultured in 6-well dishes at 35° C. and 5% CO2 in the presence of 1 ml of medium. The entire slice isolation procedure took about 30 min. The culture medium was exchanged every third day. Treatments were performed in fresh culture medium for the indicated time periods.
Brain slices were transfected with plasmids encoding shCont, and shShank3 using helios gene gun system (Bio-Rad Laboratories, #165-2431) as previously described (Proenca et al., 2013). Subsequently, slices were fixed, stained, mounted, and analyzed following the protocols described below in the immunohistochemistry and microscopy paragraphs.
Slices were fixed for 10 minutes in 4% PFA, washed in PBS and blocked for 4 hr at room temperature in 0.3% Triton X-100 20% Horse Serum/PBS (blocking solution). GFP primary antibody was incubated for 24 hr at 4° C. in the blocking solution. Afterwards, slices were washed in PBS, incubated for 2 hr in 0.3% Triton X-100/PBS with Alexa Fluor® 488 Donkey anti-chicken secondary antibody (Life technologies). Finally, slices were washed in PBS, incubated 10 minutes with DAPI (Life technologies) and mounted on glass slides using ProLong mountant (Life technologies).
High resolution images were acquired on an upright Zeiss LSM700 confocal microscope, using a Plan-Neofluar 100×/1.3 oil immersion objective. For the analysis of dendritic spine density, confocal 3D stacks were acquired in CA1 region for each experiment. To quantify spine density, a stretch of approximately 30 μm was selected on secondary dendrites originating at the branch point from the primary dendrite. Only secondary dendrites were considered to reduce variability. Dendritic length was measured using the ImageJ plugin, Simple Neurite tracer, and spine density manually counted using the Cell Counter plugin.
The above findings implicate CLK2 overexpression as a specific anomaly that is causative for attenuated Akt activity in neurons deficient for Shank3. Consequently, inhibiting CLK2 activity or directly activating Akt would restore neuronal impairments associated with Shank3 loss of function. First, a small-molecule Akt-activator, SC79, was tested for its ability to restore Akt phosphorylation (FIG. 5A). SC79 binds directly to Akt to facilitate an ‘open’ conformation of the protein that is accessible to upstream activating kinases (eg. PDK1). This obviates the need for PtdIns(3,4,5)P3 (PIP3) production and recruitment of Akt to the plasma membrane (Rodgers, Cell Metab. 11, 23-34, 2010). […] Decreased principal neuron dendritic spine density has frequently been observed in Shank3 loss of function models (Durand et al., 2007, Nature Genetics 39: 25-27; Peca et al., 2011, Nature 472: 437-442; Verpelli et al., 2011, The Journal of Biological Chemistry 286: 34839-34850). Knock-down of Shank3 in hippocampal organotypic slice cultures, via biolistic transfection of shRNA vectors, faithfully recapitulated this phenotype in CA1 pyramidal neurons, whereby a two-fold reduction in apical dendrite spine density resulted (FIG. 6A). […]

Regarding `CCOC(=O)C1=C(N)Oc2ccc(Cl)cc2C1C(C#N)C(=O)OCC` (stereo not shown) [SC79], the spine density entry is, setting by setting: (Shank3 knock down neurons, 4 μg/ml SC79, 24 hr, DIV 14) “rescued the spine density impairment in Shank3 knock down neurons”; (control neurons, 4 μg/ml SC79, 24 hr, DIV 14) “without significantly affecting controls”.

With `CCN1/C(=C/C(C)=O)Sc2ccc(OC)cc21` [TG003, (Z)-1-(3-ethyl-5-methoxy-2,3-dihydrobenzothiazol-2-ylidene)propan-2-one], where the note is “Shank3 knock down neurons, TG003 24 hours”, the spine density result was “increased spine density in Shank3 knock down neurons to control levels”. Further, the dendritic spine density entry (knockdown of Shank3 with additional shRNAs, 24 h pre-treatment with TG003, fixed DIV 14) is “corrected”.
